# Columns and labels:
# [1] = test system: E. coli essential gene hypomorphic alleles; assay: Chemical-genetic screen of 279 essential gene hypomorphs on high-density agar plates (AMPs and antibiotics); format: cell-based, Escherichia coli; details: folA hypomorphic allele, sub-inhibitory AMP (50% growth inhibition of wild type), 32 °C, 20 h
# From the text: Chemical-genetic profiling based on gene depletion captures a different aspect of resistance determinants than gene overexpression. […] To investigate the intrinsic AMP resistome, we initiated a chemical-genetic screen with a set of 279 partially depleted essential genes (hypomorphic alleles; see Methods) of E. coli. […] Then, using a well-established high-density agar plate assay[19],[33], we determined their chemical-genetic interaction profiles across the hypomorphic alleles (Supplementary Data 5). […]
# Analogous to our E. coli synthetic genetic array approach, our chemical-genetics screening strategy involves robotic pinning of each Kan^R marked single essential gene hypomorph arrayed in 384 colony format on Luria Broth (LB) medium, in quadruplicate, onto the minimal medium containing AMPs under a selected concentration, in two replicates, generating eight replicates in total for each essential gene hypomorph. […] The normalized colony sizes from the AMP plate was subtracted from their corresponding colony screened without AMP to estimate the final hypomorphic-strain fitness score (sensitive or resistant), which is as an average of all eight replicate measurements recorded for each hypomorphic allele. A z-score distribution based p-value was calculated for all interactions and those with p ≤ 0.05 were deemed as significant interactions. […]
# [2] = test system: AMP-evolved E. coli lines; assay: Cross-resistance / collateral sensitivity: relative MIC change of 38 laboratory-evolved AMP-resistant lines vs parental strain; format: cell-based, Escherichia coli; details: measured here
# From the text: Here, we extended this dataset by measuring susceptibility changes of the same evolved lines to four additional AMPs using identical protocols to represent AMPs from all four clusters (Supplementary Fig. 15a, see also Methods). Overall, the resulting dataset of susceptibility profiles provides a comprehensive map of cross-resistance and collateral sensitivity between AMPs representing various modes of action.
# To characterize the cross-resistance of the 38 E. coli lineages we obtained relative MIC changes that are, the MIC values of the evolved lines compared to these of the parental strain, from two data sources. First, we used already measured relative MIC changes from Spohn et al. Supplementary data 4[20]. […] Second, we extended this dataset by measuring the relative MIC changes of the same evolved lines to four additional AMPs using identical protocol. […] In this way, AMPs from each cluster were represented in the dataset.
# Supplementary Figure 15. […] Relative change in MIC was determined for each evolved line by comparing its MIC to the ancestral cell line (control). […] CAP18-adaped lines were not included in the analysis because CAP18 is known as a membrane-targeting AMP in the literature. c, Cross-resistance interactions are enriched between membrane-targeting AMPs that are in the same chemical-genetic clusters (i.e. AMP pairs within C1 and within C2 clusters) (Significant difference: ** P = 0.0082 from two-sided Fisher’s exact test, n = 61 and 62 for within cluster and between clusters, respectively). […] Source data are provided as a Source Data file.
sequence,measurement,setting,value
"RRRPRPPYLPRPRPPPFFPPRLPPRIPPGFPPRFPPRFP [PR39, PR-39, cathelicidin, source pig; cluster C4]",Effect of folA depletion on susceptibility,[1],sensitivity
same,Relative change in MIC (MIC of the AMP-adpated line / MIC of the ancestral strain),[2]; AMP-adapted line BAC5_3,1.32
same,Relative change in MIC (MIC of the AMP-adpated line / MIC of the ancestral strain),[2]; AMP-adapted line BAC5_5,1.464
same,Relative change in MIC (MIC of the AMP-adpated line / MIC of the ancestral strain),[2]; AMP-adapted line BAC5_7,1.584
same,Relative change in MIC (MIC of the AMP-adpated line / MIC of the ancestral strain),[2]; AMP-adapted line BAC5_10,1.57
same,Relative change in MIC (MIC of the AMP-adpated line / MIC of the ancestral strain),[2]; AMP-adapted line CAP18_2,1
same,Relative change in MIC (MIC of the AMP-adpated line / MIC of the ancestral strain),[2]; AMP-adapted line CAP18_5,0.915
same,Relative change in MIC (MIC of the AMP-adpated line / MIC of the ancestral strain),[2]; AMP-adapted line CAP18_6,0.83
same,Relative change in MIC (MIC of the AMP-adpated line / MIC of the ancestral strain),[2]; AMP-adapted line CAP18_8,1
same,Relative change in MIC (MIC of the AMP-adpated line / MIC of the ancestral strain),[2]; AMP-adapted line CAP18_10,0.83
same,Relative change in MIC (MIC of the AMP-adpated line / MIC of the ancestral strain),[2]; AMP-adapted line HBD3_3,1
same,Relative change in MIC (MIC of the AMP-adpated line / MIC of the ancestral strain),[2]; AMP-adapted line HBD3_6,0.915
same,Relative change in MIC (MIC of the AMP-adpated line / MIC of the ancestral strain),[2]; AMP-adapted line HBD3_8,1.1
same,Relative change in MIC (MIC of the AMP-adpated line / MIC of the ancestral strain),[2]; AMP-adapted line HBD3_10,1.1
same,Relative change in MIC (MIC of the AMP-adpated line / MIC of the ancestral strain),[2]; AMP-adapted line LL37_1,1.1
same,Relative change in MIC (MIC of the AMP-adpated line / MIC of the ancestral strain),[2]; AMP-adapted line LL37_3,1.1
same,Relative change in MIC (MIC of the AMP-adpated line / MIC of the ancestral strain),[2]; AMP-adapted line LL37_6,1.1
same,Relative change in MIC (MIC of the AMP-adpated line / MIC of the ancestral strain),[2]; AMP-adapted line LL37_7,1.2
same,Relative change in MIC (MIC of the AMP-adpated line / MIC of the ancestral strain),[2]; AMP-adapted line LL37_10,0.915
same,Relative change in MIC (MIC of the AMP-adpated line / MIC of the ancestral strain),[2]; AMP-adapted line PEX_1,1
same,Relative change in MIC (MIC of the AMP-adpated line / MIC of the ancestral strain),[2]; AMP-adapted line PEX_4,1
same,Relative change in MIC (MIC of the AMP-adpated line / MIC of the ancestral strain),[2]; AMP-adapted line PEX_5,0.915
same,Relative change in MIC (MIC of the AMP-adpated line / MIC of the ancestral strain),[2]; AMP-adapted line PEX_6,1
same,Relative change in MIC (MIC of the AMP-adpated line / MIC of the ancestral strain),[2]; AMP-adapted line PEX_7,1
same,Relative change in MIC (MIC of the AMP-adpated line / MIC of the ancestral strain),[2]; AMP-adapted line PROA_2,1
same,Relative change in MIC (MIC of the AMP-adpated line / MIC of the ancestral strain),[2]; AMP-adapted line PROA_3,0.915
same,Relative change in MIC (MIC of the AMP-adpated line / MIC of the ancestral strain),[2]; AMP-adapted line PROA_7,1
same,Relative change in MIC (MIC of the AMP-adpated line / MIC of the ancestral strain),[2]; AMP-adapted line PROA_8,1
same,Relative change in MIC (MIC of the AMP-adpated line / MIC of the ancestral strain),[2]; AMP-adapted line PROA_9,1
same,Relative change in MIC (MIC of the AMP-adpated line / MIC of the ancestral strain),[2]; AMP-adapted line PXB_2,1.728
same,Relative change in MIC (MIC of the AMP-adpated line / MIC of the ancestral strain),[2]; AMP-adapted line PXB_5,1.44
same,Relative change in MIC (MIC of the AMP-adpated line / MIC of the ancestral strain),[2]; AMP-adapted line PXB_6,1.728
same,Relative change in MIC (MIC of the AMP-adpated line / MIC of the ancestral strain),[2]; AMP-adapted line PXB_8,1.44
same,Relative change in MIC (MIC of the AMP-adpated line / MIC of the ancestral strain),[2]; AMP-adapted line PXB_10,1
